pEC50, pIC50, pKi: −log10 of the molar value.
Tests used:
[1] = tested on: Human immunodeficiency virus 1; assay: Ratio of Koff of HIV-1 p66/p51 reverse transcriptase K103N/Y181C double mutant/nucleic acid/dTTP ternary complex to Koff of free form of HIV-1 p66/p51 reverse transcriptase using poly(rA)/oligo(dT) as templates in presence of [3H]dTTP
[2] = tested on: Human immunodeficiency virus 1; assay: Antiviral activity against wild type HIV-1 P1 infected in human C8166 cells assessed as reduction in viral p24 antigen production at 25 nM; assay type: functional; conditions: Human immunodeficiency virus 1, P1, C8166
[3] = tested on: Human immunodeficiency virus 1; assay: Inhibition of HIV1 p66/p51 reverse transcriptase K103N/Y181C double mutant assessed as apparent Km of substrate at 300 nM using […] as templates in presence of fixed concentration of [3H]dTTP by Michaelis-Menten analysis (reference value: 106+/- 16 nM)
[4] = target: Human immunodeficiency virus type 1 reverse transcriptase (Human immunodeficiency virus 1) (UniProt Q72547); assay: Inhibition of wild type HIV1 p66/p51 reverse transcriptase assessed as apparent Vmax at 75 nM using 10 to 500 uM poly(rA)/oligo(dT) as templates in presence of fixed concentration of [3H]dTTP by Michaelis-Menten analysis (reference value: 10 +/- 0.5%)
[5] = target: Human immunodeficiency virus type 1 reverse transcriptase (Human immunodeficiency virus 1, UniProt Q72547, K103N); assay: Inhibition of RNA-dependent DNA polymerase activity of recombinant HIV-1 p66/p51 reverse transcriptase K103N mutant assessed as inhibition of [3H]dTTP incorporation using poly(rA)/oligo(dT) as templates incubated for 15 mins by MicroBeta scintillation counting method
[6] = target: Human immunodeficiency virus type 1 reverse transcriptase (Human immunodeficiency virus 1) (UniProt Q72547); assay: Binding affinity to wild type HIV-1 p66/p51 reverse transcriptase/nucleic acid binary complex assessed as association constant using poly(rA)/oligo(dT) as templates in presence of [3H]dTTP
[7] = target: Human immunodeficiency virus type 1 reverse transcriptase (Human immunodeficiency virus 1) (UniProt Q72547); assay: Binding affinity to wild type HIV-1 p66/p51 reverse transcriptase/nucleic acid binary complex assessed as dissociation constant using poly(rA)/oligo(dT) as templates in presence of [3H]dTTP
[8] = tested on: Human immunodeficiency virus 1; assay: Antiviral activity against wild type HIV-1 P1 infected in human C8166 cells assessed as reduction in viral RNA production at 25 nM; assay type: functional; conditions: Human immunodeficiency virus 1, P1, C8166
[9] = target: T1, Human immunodeficiency virus type 1 reverse transcriptase (Human immunodeficiency virus 1, UniProt Q72547); assay: Binding affinity to free form of wild type HIV-1 p66/p51 reverse transcriptase using poly(rA)/oligo(dT) as templates in presence of [3H]dTTP
[10] = target: Human immunodeficiency virus type 1 reverse transcriptase (Human immunodeficiency virus 1) (UniProt Q72547); assay: Binding affinity to free form of wild type HIV-1 p66/p51 reverse transcriptase assessed as association constant using poly(rA)/oligo(dT) as templates in presence of [3H]dTTP
[11] = tested on: Human immunodeficiency virus 1; assay: Binding affinity to HIV-1 p66/p51 reverse transcriptase K103N/Y181C double mutant/nucleic acid/dTTP ternary complex assessed as association constant using poly(rA)/oligo(dT) as templates in presence of [3H]dTTP
[12] = target: T1, Human immunodeficiency virus type 1 reverse transcriptase; assay: Binding affinity to wild type HIV-1 p66/p51 reverse transcriptase/nucleic acid/dTTP ternary complex using poly(rA)/oligo(dT) as templates in presence of [3H]dTTP
[13] = target: Human immunodeficiency virus type 1 reverse transcriptase (Human immunodeficiency virus 1) (UniProt Q72547); assay: Binding affinity to wild type HIV-1 p66/p51 reverse transcriptase/nucleic acid/dTTP ternary complex assessed as association constant using poly(rA)/oligo(dT) as templates in presence of [3H]dTTP
[14] = tested on: Human immunodeficiency virus 1; assay: Inhibition of HIV1 p66/p51 reverse transcriptase K103N/Y181C double mutant assessed as apparent Km of substrate at 75 nM using […] as templates in presence of fixed concentration of [3H]dTTP by Michaelis-Menten analysis (reference value: 106+/- 16 nM)
[15] = Binding affinity to HIV-1 p66/p51 reverse transcriptase K103N/Y181C double mutant/nucleic acid/dTTP ternary complex using poly(rA)/oligo(dT) as templates in presence of [3H]dTTP; design: species or system Human immunodeficiency virus 1
[16] = tested on: Human immunodeficiency virus 1; assay: Antiviral activity against HIV1 harboring RT Y188L mutant infected in human MT4 cells assessed as protection against virus-induced cytopathic effect by MTT assay; assay type: functional, organism-based; conditions: Human immunodeficiency virus 1, MT4
[17] = target: Human immunodeficiency virus type 1 reverse transcriptase (Human immunodeficiency virus 1) (UniProt Q72547); assay: Ratio of Kon of wild type HIV-1 p66/p51 reverse transcriptase/nucleic acid binary complex to Kon of free form of wild type HIV-1 p66/p51 reverse transcriptase using poly(rA)/oligo(dT) as templates in presence of [3H]dTTP
[18] = target: Human immunodeficiency virus type 1 reverse transcriptase (Human immunodeficiency virus 1) (UniProt Q72547); assay: Inhibition of wild type HIV1 p66/p51 reverse transcriptase assessed as apparent Vmax at 30 nM using fixed concentration of poly(rA)/oligo(dT) as templates in presence of 2 to 100 uM of [3H]dTTP by Michaelis-Menten analysis (reference value: 9.7 +/- 12%)
[19] = target: Human immunodeficiency virus type 1 reverse transcriptase (Human immunodeficiency virus 1) (UniProt Q72547); assay: Inhibition of wild type HIV1 p66/p51 reverse transcriptase assessed as apparent Vmax at 225 nM using fixed concentration of poly(rA)/oligo(dT) as templates in presence of 2 to 100 uM of [3H]dTTP by Michaelis-Menten analysis (reference value: 9.7 +/- 12%)
[20] = tested on: Human immunodeficiency virus 1; assay: Binding affinity to HIV-1 p66/p51 reverse transcriptase K103N/Y181C double mutant/nucleic acid/dTTP ternary complex assessed as dissociation constant using poly(rA)/oligo(dT) as templates in presence of [3H]dTTP
[21] = target: Human immunodeficiency virus type 1 reverse transcriptase (Human immunodeficiency virus 1) (UniProt Q72547); assay: Inhibition of wild type HIV1 p66/p51 reverse transcriptase assessed as apparent Vmax at 90 nM using fixed concentration of poly(rA)/oligo(dT) as templates in presence of 2 to 100 uM of [3H]dTTP by Michaelis-Menten analysis (reference value: 9.7 +/- 12%)
[22] = target: T1, Human immunodeficiency virus type 1 reverse transcriptase; assay: Binding affinity to wild type HIV-1 p66/p51 reverse transcriptase/nucleic acid binary complex using poly(rA)/oligo(dT) as templates in presence of [3H]dTTP
[23] = target: Human immunodeficiency virus type 1 reverse transcriptase (Human immunodeficiency virus 1) (UniProt Q72547); assay: Inhibition of wild type HIV1 p66/p51 reverse transcriptase assessed as apparent Vmax at 37.5 nM using 10 to 500 uM poly(rA)/oligo(dT) as templates in presence of fixed concentration of [3H]dTTP by Michaelis-Menten analysis (reference value: 10 +/- 0.5%)
[24] = Binding affinity to free form of HIV-1 p66/p51 reverse transcriptase K103N/Y181C double mutant using poly(rA)/oligo(dT) as templates in presence of [3H]dTTP; design: species or system Human immunodeficiency virus 1
[25] = tested on: Human immunodeficiency virus 1; assay: Inhibition of HIV1 p66/p51 reverse transcriptase K103N/Y181C double mutant assessed as apparent Vmax at 300 nM using fixed concentration of poly(rA)/oligo(dT) as templates in presence of 2 to 100 uM of [3H]dTTP by Michaelis-Menten analysis (reference value: 9.6 +/- 0.4%)
[26] = target: T1, Human immunodeficiency virus type 1 reverse transcriptase; assay: Inhibition of RNA-dependent DNA polymerase activity of wild type recombinant HIV-1 His-tagged p66/p51 reverse transcriptase assessed as inhibition of [3H]dTTP incorporation using poly(rA)/oligo(dT) as templates incubated for 15 mins by MicroBeta scintillation counting method

Q: Which Ratio [1] does the source give for `Cc1cc(C)cc(S(=O)(=O)c2c(C(=O)NCc3ccccc3O)[nH]c3ccc(Cl)cc23)c1` here?
A: The Ratio was 4.

Q: What about the inhibition at 0.025 µM [2] of the same molecule?
A: Its inhibition at 0.025 µM is 100%.

Q: And the Km [3]?
A: The Km was 0.104 µM.

Q: And the Vmax(app) [4]?
A: Its Vmax(app) is 3.3%.

Q: What about the pIC50 [5] of the same molecule?
A: Its pIC50 is 7.14.

Q: What about the K [6] of the same molecule?
A: Its K is 96 10^-5/nM/s.

Q: What about the K [7] of the same molecule?
A: The K was 35 10^-3/s.

Q: And the inhibition at 0.025 µM [8]?
A: The inhibition at 0.025 µM was 100%.

Q: And the pKi [9]?
A: Its pKi is 7.51.

Q: And the K [10]?
A: The K was 13 10^-5/nM/s.

Q: What about the K [11] of the same molecule?
A: The K was 42 10^-5/nM/s.

Q: What about the pKi [12] of the same molecule?
A: The pKi was 7.55.

Q: And the K [13]?
A: Its K is 15 10^-5/nM/s.

Q: What about the Km [14] of the same molecule?
A: The Km was 0.108 µM.

Q: And the pKi [15]?
A: The pKi was 7.11.

Q: What about the pEC50 [16] of the same molecule?
A: The pEC50 was 7.67.

Q: What about the Ratio [17] of the same molecule?
A: The Ratio was 7.

Q: And the Vmax(app) [18]?
A: The Vmax(app) was 5.6%.

Q: What about the Vmax(app) [19] of the same molecule?
A: Its Vmax(app) is 0.9%.

Q: And the K [20]?
A: Its K is 33 10^-3/s.

Q: And the Vmax(app) [21]?
A: Its Vmax(app) is 2.9%.

Q: What about the pKi [22] of the same molecule?
A: Its pKi is 7.44.

Q: And the Vmax(app) [23]?
A: The Vmax(app) was 4.9%.

Q: What about the pKi [24] of the same molecule?
A: The pKi was 6.86.

Q: What about the Vmax(app) [25] of the same molecule?
A: Its Vmax(app) is 1.5%.

Q: What about the pIC50 [26] of the same molecule?
A: The pIC50 was 7.08.
